Results on 8 molecules are retold here after paper PMC4886219, “Bioengineered kidney tubules efficiently excrete uremic toxins” (Scientific Reports, 2016).

Structures can show the parent of a compound that is named as a salt. Where two headings read alike, the source gives them in different places.

Data set [1] concerns the target T1, OAT1 (Homo sapiens, UniProt Q4U2R8).
T1 sequence (Q4U2R8 1-563): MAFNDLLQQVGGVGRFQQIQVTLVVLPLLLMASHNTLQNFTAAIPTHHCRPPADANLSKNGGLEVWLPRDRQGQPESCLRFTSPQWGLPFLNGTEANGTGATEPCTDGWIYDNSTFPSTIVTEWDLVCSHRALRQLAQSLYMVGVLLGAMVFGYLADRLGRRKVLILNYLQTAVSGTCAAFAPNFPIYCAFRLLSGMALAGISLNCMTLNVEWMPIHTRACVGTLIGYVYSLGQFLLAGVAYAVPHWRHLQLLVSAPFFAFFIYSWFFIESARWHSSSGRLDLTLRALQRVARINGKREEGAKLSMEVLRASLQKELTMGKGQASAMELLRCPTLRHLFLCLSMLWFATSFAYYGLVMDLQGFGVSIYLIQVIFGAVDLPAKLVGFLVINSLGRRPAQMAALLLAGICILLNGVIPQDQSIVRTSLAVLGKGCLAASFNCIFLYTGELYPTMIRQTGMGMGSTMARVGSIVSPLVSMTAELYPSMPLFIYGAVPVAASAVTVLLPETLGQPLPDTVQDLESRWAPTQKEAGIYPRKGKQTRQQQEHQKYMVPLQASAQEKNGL
Briefly: Fluorescein inhibition assay in ciPTEC-OAT1 flat monolayers.

In data set [2] the target is T2, OAT3 (Homo sapiens, UniProt Q8TCC7).
T2 sequence (Q8TCC7 1-542): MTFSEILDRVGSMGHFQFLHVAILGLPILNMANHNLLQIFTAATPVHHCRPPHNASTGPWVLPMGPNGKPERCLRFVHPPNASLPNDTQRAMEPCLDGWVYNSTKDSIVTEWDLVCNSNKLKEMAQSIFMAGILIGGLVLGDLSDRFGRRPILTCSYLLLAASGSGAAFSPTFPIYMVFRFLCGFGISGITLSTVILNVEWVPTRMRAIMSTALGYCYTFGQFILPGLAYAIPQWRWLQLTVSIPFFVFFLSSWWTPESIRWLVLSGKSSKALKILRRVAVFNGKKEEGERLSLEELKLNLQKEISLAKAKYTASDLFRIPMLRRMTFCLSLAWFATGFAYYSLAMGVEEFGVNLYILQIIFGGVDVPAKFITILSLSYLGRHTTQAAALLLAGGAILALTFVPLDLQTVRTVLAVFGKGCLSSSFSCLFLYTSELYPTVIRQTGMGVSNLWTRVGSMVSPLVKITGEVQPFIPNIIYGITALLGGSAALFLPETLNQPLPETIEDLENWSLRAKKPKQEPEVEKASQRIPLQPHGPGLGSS
The experiment in a line: Fluorescein inhibition assay in ciPTEC-OAT3 flat monolayers.

On the set-up of data set [3]: method as in Duranton et al.[6]. The settings on record: mean plasma levels in ESRD patients; ref Duranton et al.[6]; cited from earlier work.
Data set [4] relates to BCRP. Details: method as in earlier work. The following applies: vesicular transport assay; ref 14 (Mutsaers et al.); cited from earlier work.
The subject of data set [5] is parent ciPTEC models lacking OAT1. Briefly: MTT cell viability assay in parent ciPTEC lacking OAT1. The data set is classed as cell-based, human. The following applies: parent ciPTEC lacking OAT1, in presence of efflux pump inhibitors. As to the method: After 4 hours of incubation, the intracellular
Monolayer polarization and transepithelial barrier function
Next, cells were incubated with
The mR NA expression level s of
PCR Master Mix (Applied Biosystems, Branchburg, NJ).
A general note: Tetrazolium dyes change colour on reduction, which living cells bring about.

Data set [6] has as its system MRP4. Details: method as in earlier work. The settings on record: vesicular transport assay; ref 14 (Mutsaers et al.); cited from earlier work.
Data set [7] relates to bioengineered renal tubules (ciPTEC-OAT1 on HFM). The experiment in a line: Transepithelial transport (clearance) of indoxyl sulfate and kynurenic acid in bioengineered renal tubules. The data set is classed as cell-based. The following applies: absence of human serum albumin; perfusion 10 min, 100 μM toxin.
Data set [8] concerns the target T1, OAT1. The experiment in a line: Uptake of indoxyl sulfate and kynurenic acid by ciPTEC-OAT1 (LC-MS/MS). The following applies: 10 min, 37°C.
For data set [9], the target named is T1, OAT1. Briefly: in vitro. The settings on record: pH 7.4, inhibition of indoxyl sulfate uptake.
Where [10] appears, read: read-out: ciPTEC-OAT1 IC50 (inhibition of fluorescein uptake), 1 μM fluorescein, 10 min, 37°C, flat monolayers, mean ± S.E.M.
The mark [11] stands for this setting: read-out: ciPTEC-OAT3 IC50 (inhibition of fluorescein uptake), 1 μM fluorescein, 10 min, 37°C, flat monolayers, mean ± S.E.M.

As to `Nc1ccccc1C(=O)C[C@H](N)C(=O)O` [L-Kynurenine], the figures for the concentration for half-maximal inhibition (IC50) in data set [1] and in data set [2] were 65 ± 8 µM and 219 ± 66 µM, respectively. Further, the “Cm in ESRD patients” value in data set [3] is 6 µM.

For `O=S(=O)(O)Oc1c[nH]c2ccccc12` [Indoxyl sulfate], the “inhibition of BCRP (in words)” value in data set [4] is reported as “potent inhibitors”. In addition, in data set [5], the “TC50 (cell viability, MTT)” value was found to be 3000 ± 500 µM. In data set [6], the “inhibition of MRP4 (in words)” value is listed as “potent inhibitors”. Further, in data set [3], the “Cm in ESRD patients” value is 110 µM.

`O=C(O)Cc1c[nH]c2ccccc12` [Indole-3-acetic acid]: the IC50 in [1] was 19 ± 2 µM; in data set [2], 148 ± 60 µM.

`O=C(O)CNC(=O)c1ccccc1` [Hippuric acid] gave an IC50 in data set [2] of 22 ± 9 µM. Besides, in [3], the “Cm in ESRD patients” value was 398 µM.

Regarding `O=C(O)[C@H]1O[C@@H](Oc2c[nH]c3ccccc23)[C@H](O)[C@@H](O)[C@@H]1O` [Indoxyl-β-glucuronide], the IC50 in data set [1] was 492 ± 68 µM; in data set [2], 527 ± 218 µM. Also, in data set [3], the “Cm in ESRD patients” value is 9 µM.

Turning to `Cc1ccc(OS(=O)(=O)O)cc1` [p-Cresylsulfate], the IC50 in data set [1] (setting [10]) was determined as 79 ± 14 µM; in [2] (setting [11]) it was 112 ± 19 µM. Moreover, the “Cm in ESRD patients” value in data set [3] was 675 µM.

In [7], `O=C(O)c1cc(=O)c2ccccc2[nH]1` [Kynurenic acid] returned a transepithelial clearance of 72 ± 20 μl.min^−1.cm^−2. Moreover, the IC50 in data set [1] and in data set [2] was 6 ± 1 µM each time. In addition, the “uptake by ciPTEC-OAT1 monolayers” value in data set [8] (toxin 3 μM) was found to be 2.7 ± 0.3 pmol.min^−1.cm^−2; in data set [8] (toxin 30 μM), 5.9 ± 0.5 pmol.min^−1.cm^−2. The inhibition at 10 min, 100 μM in data set [9] stood at 64 ± 13%.

For `Cc1ccc(O[C@@H]2O[C@H](C(=O)O)[C@@H](O)[C@H](O)[C@H]2O)cc1` [p-Cresylglucuronide], the 50% inhibitory concentration (IC50) in data set [1] (setting [10]) worked out at 2650 ± 922 µM; in data set [2] (setting [11]), 588 ± 81 µM. In data set [3], the “Cm in ESRD patients” value was 44 µM.

In general, IC50 refers to the point on the concentration scale where inhibition reaches its midpoint. For orientation: inhibition means the relative decrease from the control value, in per cent.
